The source of these data is patent publication US8946257B2, “N-containing heteroaryl derivatives as JAK3 kinase inhibitors” (Vectura Limited, priority 2009, dated 2015).

Experiment [1] addresses catalytic domain of human JAK3 (Homo sapiens, UniProt P52333). In words: Inhibition of JAK3 activity (Z'-Lyte Kinase Assay kit-Tyr 6 Peptide). Type of experiment: biochemical. How it is done: The inhibition of JAK3 kinase activity was determined in 384-well assay microplates using the Z′-Lyte® Kinase Assay kit-Tyr 6 Peptide kit, supplied by Invitrogan (Ref: PV4122), following the manufacturer's instructions.
(§1) In a final volume of 10 μL per well, 2.5 μL of the product to be tested dissolved in 4% DMSO (final concentration of the product to be tested, 0.1-10000 nM) was incubated with 0.3 μg/mL of the catalytic domain of human JAK3 (amino acid sequence 281-1124), 2 μM of the substrate peptide Z′-Lyte® Tyr 6 and 4 μM of ATP; all components were dissolved in 50 mM pH 7.5 Hepes buffer, 10 mM Magnesium chloride (II), 1 mM EGTA and 0.01% Brij® 35. The reaction was started by the addition of said 4 μM ATP; after incubation for 1 hour at 25° C., 5 μL of A Z′-Lyte® Tyr 6 development reagent was added and the mixture was incubated for 1 hour at 25° C. Phosphorylation was then quantified in each well using a Safire2® fluorescence microplate reader from Tecan.

In experiment [2] the target is T1, catalytic domain of human JAK2 (Homo sapiens, UniProt O60674).
T1 construct: the catalytic domain of human JAK2
In words: Inhibition of JAK2 activity (Z'-Lyte Kinase Assay kit-Tyr 6 Peptide). Type of experiment: biochemical. On the procedure:
The inhibition of JAK2 kinase activity was determined in 384-well assay microplates using the Z′-Lyte® Kinase Assay kit-Tyr 6 Peptide kit, supplied by Invitrogen (Ref: PV4122), following the manufacturer's instructions.
as §1, with “with 0.5 μg/well” for “with 0.3 μg/mL”, “human JAK2,” for “human JAK3 (amino acid sequence 281-1124),”, “and 16” for “and 4”, “said 16” for “said 4”

Molecules are shown by their SMILES. Counter-ions that a name gives are not always drawn.

Sequence of catalytic domain of human JAK3 (P52333 781-1124 limits assumed): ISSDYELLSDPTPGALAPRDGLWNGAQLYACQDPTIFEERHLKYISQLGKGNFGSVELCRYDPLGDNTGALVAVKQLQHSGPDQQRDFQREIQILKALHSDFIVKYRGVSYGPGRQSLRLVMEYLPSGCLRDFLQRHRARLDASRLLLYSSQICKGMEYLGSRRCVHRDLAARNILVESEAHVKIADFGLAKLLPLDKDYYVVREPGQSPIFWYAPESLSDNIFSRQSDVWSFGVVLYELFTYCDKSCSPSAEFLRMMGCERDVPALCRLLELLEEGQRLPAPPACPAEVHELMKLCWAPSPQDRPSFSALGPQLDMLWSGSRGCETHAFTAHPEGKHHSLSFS
T1 sequence (O60674 849-1124 limits assumed): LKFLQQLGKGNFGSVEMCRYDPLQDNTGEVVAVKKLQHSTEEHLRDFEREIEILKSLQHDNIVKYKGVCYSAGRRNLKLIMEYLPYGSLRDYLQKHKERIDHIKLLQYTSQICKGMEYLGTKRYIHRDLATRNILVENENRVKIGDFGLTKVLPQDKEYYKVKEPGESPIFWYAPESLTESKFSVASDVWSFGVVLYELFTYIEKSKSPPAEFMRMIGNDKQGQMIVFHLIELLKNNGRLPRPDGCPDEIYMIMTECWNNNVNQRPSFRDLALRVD

For orientation: inhibition means the change of the read-out against control, counted positive when it falls. The low end stands for a response near the control, the high end for a response far below the control. Consider `O=c1[nH]c2ccc(-c3cnn4ccccc34)nc2n1[C@H]1CCCNC1` [Example 6x, (S)-3-(piperidin-3-yl)-5-(pyrazolo[1,5-a]pyridin-3-yl)-1H-imidazo[4,5-b]pyridin-2(3H)-one hydrochloride], for which the inhibition at 1 µM in experiment [1] was greater than 50%. With `CC(C)C(=O)N1CCC[C@H](n2c(=O)[nH]c3ccc(-c4cnn5ccccc45)nc32)C1` [Example 8d, (S)-3-(1-isobutyrylpiperidin-3-yl)-5-(pyrazolo[1,5-a]pyridin-3-yl)-1H-imidazo[4,5-b]pyridin-2(3H)-one], the inhibition at 1 µM in experiment [2] is greater than 50%.

`CS(=O)(=O)N1CCC[C@H](n2c(=O)[nH]c3cnc(-c4cnn5ccccc45)nc32)C1` [Example 9a, (S)-9-(1-(methylsulfonyl)piperidin-3-yl)-2-(pyrazolo[1,5-a]pyridin-3-yl)-7H-purin-8(9H)-one]: the inhibition at 1 µM in experiment [2] was greater than 50%. Same read-out and setting: the figure for `CCCS(=O)(=O)N1CCC[C@H](n2c(=O)[nH]c3cnc(-c4cnn5ccc(C#N)cc45)nc32)C1` [Example 9b, (S)-3-(8-oxo-9-(1-(propylsulfonyl)piperidin-3-yl)-8,9-dihydro-7H-purin-2-yl)pyrazolo[1,5-a]pyridine-5-carbonitrile] is greater than 50%; for `N#Cc1ccn2ncc(-c3ncc4[nH]c(=O)n([C@H]5CCCN(S(=O)(=O)CC(F)(F)F)C5)c4n3)c2c1` [Example 9c, (S)-3-(8-oxo-9-(1-(2,2,2-trifluoroethylsulfonyl)piperidin-3-yl)-8,9-dihydro-7H-purin-2-yl)pyrazolo[1,5-a]pyridine-5-carbonitrile] it is greater than 50%. The molecule `Cn1c(=O)n([C@H]2CCCN(S(C)(=O)=O)C2)c2nc(-c3cnn4ccccc34)ccc21` [Example 9f, (S)-1-methyl-3-(1-(methylsulfonyl)piperidin-3-yl)-5-(pyrazolo[1,5-a]pyridin-3-yl)-1H-imidazo[4,5-b]pyridin-2(3H)-one] yielded an inhibition at 1 µM in experiment [2] greater than 50%. Still for that read-out and setting: under `Cc1ccn2ncc(-c3ncc4[nH]c(=O)n([C@H]5CCCN(S(C)(=O)=O)C5)c4n3)c2c1` [Example 9g, (S)-2-(5-methylpyrazolo[1,5-a]pyridin-3-yl)-9-(1-(methylsulfonyl)piperidin-3-yl)-7H-purin-8(9H)-one] stands greater than 50%; under `N#Cc1ccn2ncc(-c3ncc4[nH]c(=O)n([C@H]5CCCN(C(=O)CO)C5)c4n3)c2c1` [Example 10a], greater than 50%. On the same count and under the same terms, the figure for `CC(C)(O)C(=O)N1CCC[C@H](n2c(=O)[nH]c3cnc(-c4cnn5ccc(C#N)cc45)nc32)C1` [Example 10b] is greater than 50%; for `CCC(CC)C(=O)N1CCC[C@H](n2c(=O)[nH]c3cnc(-c4cnn5ccc(C#N)cc45)nc32)C1` [Example 10e] it is greater than 50%. Still for that read-out and setting: the figure for `N#Cc1ccn2ncc(-c3ncc4[nH]c(=O)n([C@H]5CCCN(C(=O)CC(F)(F)F)C5)c4n3)c2c1` [Example 10h] is greater than 50%; for `CCC(=O)N1CCC[C@H](n2c(=O)[nH]c3cnc(-c4cnn5ccc(C)cc45)nc32)C1` [Example 10i] it is greater than 50%. Turning to `COCC(=O)N1CCC[C@H](n2c(=O)n(C(=O)COC)c3cnc(-c4cnn5ccc(C)cc45)nc32)C1` [Example 10k], in experiment [2], the inhibition at 1 µM is greater than 50%. Same read-out and setting: the figure for `CC(=O)N1CCC[C@H](n2c(=O)[nH]c3cnc(-c4cnn5ccc(C)cc45)nc32)C1` [Example 10l] is greater than 50%; for `Cc1ccn2ncc(-c3ncc4[nH]c(=O)n([C@H]5CCCN(C(=O)CO)C5)c4n3)c2c1` [Example 10m] it is greater than 50%; for `N#Cc1ccn2ncc(-c3ncc4[nH]c(=O)n([C@H]5CCCN(C(=O)C6CC6)C5)c4n3)c2c1` [Example 10n] it is greater than 50%. The same measure, in the same setting: the figure for `CCNC(=O)[C@@H](C)n1c(=O)[nH]c2cnc(-c3cnn4ccc(C#N)cc34)nc21` [Example 15f] is greater than 50%. Still for that read-out and setting: the figure for `C[C@H](C(=O)N(C)C)n1c(=O)[nH]c2cnc(-c3cnn4ccc(C#N)cc34)nc21` [Example 15h] is greater than 50%; for `C[C@@H](C(=O)NCC(F)(F)F)n1c(=O)[nH]c2cnc(-c3cnn4ccc(C#N)cc34)nc21` [Example 15i] it is greater than 50%; for `C[C@@H](C(=O)N(C)C)n1c(=O)[nH]c2cnc(-c3cnn4ccccc34)nc21` [Example 15k] it is greater than 50%. `COCCn1c(=O)n(C2CCOCC2)c2nc(-c3cnn4ccc(C#N)cc34)ncc21` [Example 16, 3-(7-(2-Methoxyethyl)-8-oxo-9-(tetrahydro-2H-pyran-4-yl)-8,9-dihydro-7H-purin-2-yl)pyrazolo[1,5-a]pyridine-5-carbonitrile]: the inhibition at 1 µM in experiment [2] was greater than 50%.

As for `CN(C)CCn1c(=O)n([C@H]2CCCN(C(=O)CC#N)C2)c2nc(-c3cnn4ccc(C#N)cc34)ncc21` [Example 16a], the inhibition at 1 µM in experiment [2] is greater than 50%. On the same count and under the same terms, under `Cc1nc2cnc(-c3cnn4ccc(C#N)cc34)nc2n1C1CCOCC1` [Example 18a] stands greater than 50%; under `Cc1nc2cnc(-c3cnn4ccc(C#N)cc34)nc2n1C1CCC(F)(F)CC1` [Example 18b], greater than 50%.

Molecule `N#Cc1ccn2ncc(-c3ccc4ncn(C5CCOCC5)c4n3)c2c1` [Example 19, 3-(3-(Tetrahydro-2H-pyran-4-yl)-3H-imidazo[4,5-b]pyridin-5-yl)pyrazolo[1,5-a]pyridine-5-carbonitrile] came in with an inhibition at 1 µM in experiment [2] greater than 50%.

The molecule `Cn1ccnc1-c1nc2cnc(-c3cnn4ccc(C#N)cc34)nc2n1C1CCOCC1` [Example 21, 3-(8-(1-Methyl-1H-imidazol-2-yl)-9-(tetrahydro-2H-pyran-4-yl)-9H-purin-2-yl)pyrazolo[1,5-a]pyridine-5-carbonitrile] registered an inhibition at 1 µM in experiment [1] greater than 50%.

Molecule `c1csc(-c2nc3cnc(-c4cnn5ccccc45)nc3n2C2CCOCC2)c1` [Example 21k] had an inhibition at 1 µM in experiment [2] greater than 50%.

With `c1ccn2ncc(-c3ncc4nc(C5CC5)n(C5CCOCC5)c4n3)c2c1` [Example 23d], the inhibition at 1 µM in experiment [2] is greater than 50%.

On to `Cn1c(=O)n([C@H]2CCCN(C(=O)C(C)(C)C)C2)c2nc(-c3cnn4ccccc34)ccc21` [Example 24a], for which the inhibition at 1 µM in experiment [2] is greater than 50%. In turn, `CCC(=O)N1CCC[C@H](n2c(=O)n(C)c3ccc(-c4cnn5ccccc45)nc32)C1` [Example 24c] showed an inhibition at 1 µM in experiment [2] greater than 50%.

Turning to `CCOC(=O)N1CCC[C@H](n2c(=O)[nH]c3cnc(-c4cnn5ccc(C#N)cc45)nc32)C1` [Example 26a], the inhibition at 1 µM in experiment [2] was greater than 50%. On the same count and under the same terms, under `CC(C)NC(=O)N1CCC[C@H](n2c(=O)[nH]c3cnc(-c4cnn5ccc(C#N)cc45)nc32)C1` [Example 26c] stands greater than 50%.

In experiment [2], `CC(C)(C)NC(=O)N1CCC[C@H](n2c(=O)[nH]c3cnc(-c4cnn5ccc(C#N)cc45)nc32)C1` [Example 26d] yielded an inhibition at 1 µM greater than 50%.

For the molecule `CCOC(=O)n1c(=O)n([C@H]2CCCN(C(=O)CC#N)C2)c2nc(-c3cnn4ccccc34)ncc21` [Example 26e], in experiment [2], the inhibition at 1 µM is greater than 50%. Still for that read-out and setting: under `CC(=O)n1c(=O)n([C@H]2CCCN(C(=O)CC#N)C2)c2nc(-c3cnn4ccccc34)ncc21` [Example 26f] stands greater than 50%. `CC(=O)N1CCC[C@H](n2c(=O)n(C)c3cnc(-c4cnn5ccccc45)nc32)C1` [Example 26g] registered an inhibition at 1 µM in experiment [2] greater than 50%. Same read-out and setting: the figure for `N#Cc1ccn2ncc(-c3ncc4[nH]c(=O)n([C@H]5CCCN(C(=O)C6(O)CC6)C5)c4n3)c2c1` [Example 27a] is greater than 50%. In experiment [1], `C[C@H](CO)n1c(=O)[nH]c2cnc(-c3cnn4ccc(C#N)cc34)nc21` [Example 28, (R)-3-(9-(1-Hydroxypropan-2-yl)-8-oxo-8,9-dihydro-7H-purin-2-yl)pyrazolo[1,5-a]pyridine-5-carbonitrile] registered an inhibition at 1 µM greater than 50%. Same read-out and setting: under `C[C@H](CO)n1c(=O)n(C)c2cnc(-c3cnn4ccc(C#N)cc34)nc21` [Example 32, (R)-3-(9-(1-Hydroxypropan-2-yl)-7-methyl-8-oxo-8,9-dihydro-7H-purin-2-yl)pyrazolo[1,5-a]pyridine-5-carbonitrile] stands greater than 50%. `CCC(=O)Nc1nc2cnc(-c3cnn4ccccc34)nc2n1C1CCOCC1` [Example 34b] returned an inhibition at 1 µM in experiment [2] greater than 50%.

On to `Cn1c(=O)n([C@H]2CC[C@H](O)CC2)c2nc(-c3cnn4ccc(C#N)cc34)ncc21` [Example 35, 3-(9-(trans-4-Hydroxycyclohexyl)-7-methyl-8-oxo-8,9-dihydro-7H-purin-2-yl)pyrazolo[1,5-a]pyridine-5-carbonitrile], for which the inhibition at 1 µM in experiment [1] is greater than 50%. Same read-out and setting: under `N#Cc1ccn2ncc(-c3ncc4[nH]c(=O)n(CC(=O)NCC(F)(F)F)c4n3)c2c1` [Example 36, 2-(2-(5-Cyanopyrazolo[1,5-a]pyridin-3-yl)-8-oxo-7H-purin-9(8H)-yl)-N-(2,2,2-trifluoroethyl)acetamide] stands greater than 50%.
